What was measured:
[1] = target: Bacillus subtilis; experiment: Binding dissociation constant towards 3'-Fl-AM1A-Rhd in Bacillus subtilis tyrS; assay type: functional
[2] = test system: Nucleic Acid; experiment: Maximum Frel value for binding to 3'-Fl-AM1A-Rhd in Bacillus subtilis tyr

Compound | Kd [1] [µM] | Frel [2]
NC[C@@H]1O[C@H](O[C@H]2[C@@H](O)[C@H](O[C@@H]3[C@@H](O)[C@H](N)C[C@H](N)[C@H]3O[C@H]3O[C@H](CN)[C@@H](O)[C@H](O)[C@H]3N)O[C@@H]2CO)[C@H](N)[C@@H](O)[C@@H]1O [FRAMYCETIN] | 8.5 | 0.46
CN[C@@H]1[C@@H](O)[C@@H](O[C@@H]2[C@@H](O)[C@H](O[C@H]3O[C@H]([C@@H](C)NC)CC[C@H]3N)[C@@H](N)C[C@H]2N)OC[C@]1(C)O [GENTAMICIN C1] | 120 | 0.8
NCCC(O)C(=O)N[C@@H]1C[C@H](N)[C@@H](O[C@H]2O[C@H](CN)[C@@H](O)[C@H](O)[C@H]2O)[C@H](O)[C@H]1O[C@H]1O[C@H](CO)[C@@H](O)[C@H](N)[C@H]1O (single isomer, unassigned) [AMIKACIN] | 760 | 0.29
NC[C@@H]1O[C@H](O[C@H]2[C@@H](O)[C@H](O[C@@H]3[C@@H](O)[C@H](N)C[C@H](N)[C@H]3O[C@H]3O[C@H](CO)[C@@H](O)[C@H](O)[C@H]3N)O[C@@H]2CO)[C@H](N)[C@@H](O)[C@@H]1O [PAROMOMYCIN] | 50 | 0.41
NC[C@H]1O[C@H](O[C@H]2[C@H](O)[C@@H](O[C@H]3O[C@H](CO)[C@@H](O)[C@H](N)[C@H]3O)[C@H](N)C[C@@H]2N)[C@H](N)C[C@@H]1O [TOBRAMYCIN] | 38 | 0.33

Other lines, results leading:

Kd [1] [µM] | Frel [2] | Compound
790 | 0.34 | [H]/N=C(/N)N[C@H]1[C@H](O)[C@@H](O)[C@H](O[C@@H]2O[C@@H](C)[C@](O)(C=O)[C@H]2O[C@@H]2O[C@@H](CO)[C@H](O)[C@@H](O)[C@@H]2NC)[C@@H](N/C(N)=N\[H])[C@@H]1O (stereo in doubt) [STREPTOMYCIN]
120 | 0.8 | CN[C@@H]1[C@@H](O)[C@@H](O[C@@H]2[C@@H](O)[C@H](O[C@H]3O[C@H](C(C)N)CC[C@H]3N)[C@@H](N)C[C@H]2N)OC[C@]1(C)O (stereo partly drawn) [GENTAMICIN C2]
150 | 0.38 | NC[C@H]1O[C@H](O[C@H]2[C@H](O)[C@@H](O[C@H]3O[C@H](CO)[C@@H](O)[C@H](N)[C@H]3O)[C@H](N)C[C@@H]2N)[C@H](N)[C@@H](O)[C@@H]1O [BEKANAMYCIN]
– | 0.21 | NC[C@H]1O[C@H](O[C@H]2[C@H](O)[C@@H](O[C@H]3O[C@H](CO)[C@@H](O)[C@H](N)[C@H]3O)[C@H](N)C[C@@H]2N)[C@H](O)[C@@H](O)[C@@H]1O [KANAMYCIN A]
210 | – | NC[C@@H]1O[C@@H](O[C@H]2[C@H](O)[C@@H](O[C@H]3O[C@H](CO)[C@@H](O)[C@H](N)[C@H]3O)[C@H](N)C[C@@H]2N)[C@@H](O)[C@H](O)[C@H]1O [KANAMYCIN A]

Source: ChEMBL document CHEMBL1143547, “Fluorescence resonance energy transfer studies of aminoglycoside binding to a T box antiterminator RNA” (Bioorg Med Chem Lett, 2005)
